What was measured:
[1] = target: T1, recombinant human ALK5 (TGF-βR1) protein (Homo sapiens, UniProt P36897); experiment: Biochemical ALK5 (TGF-βR1) assay to measure pKi (LANCE Ultra ULight kinase assay); conditions: apparent pKi from pIC50 by Cheng-Prusoff, read-out: ALK5 pKi (converted)
T1 construct: purchased Life Technologies PR9075A
T1 sequence (P36897 34-503): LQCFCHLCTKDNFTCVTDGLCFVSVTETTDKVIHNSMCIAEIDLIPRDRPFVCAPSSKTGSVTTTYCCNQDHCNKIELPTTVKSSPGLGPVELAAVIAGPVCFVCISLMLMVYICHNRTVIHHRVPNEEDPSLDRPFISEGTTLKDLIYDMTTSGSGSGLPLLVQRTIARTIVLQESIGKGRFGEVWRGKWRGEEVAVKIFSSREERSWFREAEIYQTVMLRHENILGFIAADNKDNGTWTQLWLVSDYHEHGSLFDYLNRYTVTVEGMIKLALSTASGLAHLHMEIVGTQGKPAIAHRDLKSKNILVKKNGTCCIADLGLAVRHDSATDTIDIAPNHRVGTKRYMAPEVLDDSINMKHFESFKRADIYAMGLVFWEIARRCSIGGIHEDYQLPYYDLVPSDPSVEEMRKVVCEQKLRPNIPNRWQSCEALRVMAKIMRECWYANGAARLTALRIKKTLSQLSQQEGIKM
Method in brief: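 Compounds (10 μM to 25 pM) preincubated 60 minutes at room temperature with enzyme, then reaction run 60 minutes at 37° C with ATP added as 125 μM (5× final). Stopped with EDTA plus Eu-anti-phospho-Topoisomerase 2-alpha (Thr1342) antibody, TR-FRET read at 665 nm; pIC50 converted to pKi via Cheng-Prusoff.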

[2] = system: TGF-β-stimulated SMAD3 phosphorylation in BEAS-2B cells; experiment: Cellular ALK5 potency assay, inhibition of TGF-β stimulated pSMAD3 formation in BEAS-2B cells; type: cell-based; conditions: Homo sapiens; inhibition of TGF-β stimulated pSMAD3 formation, BEAS-2B cells; read-out: BEAS2B pIC50 (converted)
Method in brief: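 BEAS-2B human lung epithelial cells pre-treated 1 h at 37° C with compound in HBSS/25 mM HEPES/1% BSA, then stimulated 30 min with 10 ng/mL TGF-β (final). Lysates assayed for pSMAD3 by AlphaLISA; pIC50 from dose-dependent change versus stimulated untreated cells.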

Row | Compound | Ki [1] | IC50 [2]
1 | Cc1nc(-c2n[nH]cc2-c2ccc3ncc(-c4nnn5c4NCCC5)cc3n2)ccc1F [Compound 263, 2-[3-(5-fluoro-6-methyl-2-pyridyl)-1H-pyrazol-4-yl]-7-(4,5,6,7-tetrahydrotriazolo[1,5-a]pyrimidin-3-yl)-1,5-naphthyridine] | 0.0398 to 0.316 nM | 25.1 to 158 nM
2 | CNC1CCN(c2cnc3ccc(-c4c[nH]nc4-c4ccc(F)c(C)n4)nc3c2)CC1 [Compound 264, 1-[6-[3-(5-fluoro-6-methyl-2-pyridyl)-1H-pyrazol-4-yl]-1,5-naphthyridin-3-yl]-N-methyl-piperidin-4-amine] | < 0.0316 nM | 25.1 to 158 nM
3 | Cc1cccc(-c2n[nH]cc2-c2ccc3ncc(-c4ccc(C5CCCN(C(C)C)C5)cc4)cc3n2)n1 (centres unmarked) [Compound 265, 7-[4-(1-isopropyl-3-piperidyl)phenyl]-2-[3-(6-methyl-2-pyridyl)-1H-pyrazol-4-yl]-1,5-naphthyridine] | 0.0398 to 0.316 nM | 200 to 1260 nM
4 | Cc1cccc(-c2n[nH]cc2-c2ccc3ncc(N4CCN(CC(F)(F)F)CC4)cc3n2)n1 [Compound 266, 2-[3-(6-methyl-2-pyridyl)-1H-pyrazol-4-yl]-7-[4-(2,2,2-trifluoroethyl)piperazin-1-yl]-1,5-naphthyridine] | 0.0398 to 0.316 nM | 25.1 to 158 nM
5 | Cc1cccc(-c2n[nH]cc2-c2ccc3ncc(N4CCn5nc(C6=CCC(N)CC6)nc5C4)cc3n2)n1 (centres unmarked) [Compound 268, 4-[7-[6-[3-(6-methyl-2-pyridyl)-1H-pyrazol-4-yl]-1,5-naphthyridin-3-yl]-6,8-dihydro-5H-[1,2,4]triazolo[1,5-a]pyrazin-2-yl]cyclohex-3-en-1-amine] | 0.0398 to 0.316 nM | 200 to 1260 nM
6 | Cc1cccc(-c2n[nH]cc2-c2ccc3ncc(NCC4CNCCN4)cc3n2)n1 (centres unmarked) [Compound 269, 6-[3-(6-methyl-2-pyridyl)-1H-pyrazol-4-yl]-N-(piperazin-2-ylmethyl)-1,5-naphthyridin-3-amine] | 0.0398 to 0.316 nM | 1580 to 10000 nM
7 | Cc1cccc(-c2n[nH]cc2-c2ccc3ncc(N4CCC[C@@H]4CO)cc3n2)n1 [Compound 270, [(2R)-1-[6-[3-(6-methyl-2-pyridyl)-1H-pyrazol-4-yl]-1,5-naphthyridin-3-yl]pyrrolidin-2-yl]methanol] | 0.0398 to 0.316 nM | 25.1 to 158 nM
8 | Cc1cccc(-c2n[nH]cc2-c2ccc3ncc(N4CCNC[C@H]4C)cc3n2)n1 [Compound 271, 7-[(2R)-2-methylpiperazin-1-yl]-2-[3-(6-methyl-2-pyridyl)-1H-pyrazol-4-yl]-1,5-naphthyridine] | 0.0398 to 0.316 nM | 25.1 to 158 nM
9 | Cc1cccc(-c2nc3ccccn3c2-c2ccc3ncc(N4CCC(N(C)C)C4)cc3c2)n1 (centres unmarked) [Compound 272, N,N-dimethyl-1-[6-[2-(6-methyl-2-pyridyl)imidazo[1,2-a]pyridin-3-yl]-3-quinolyl]pyrrolidin-3-amine] | < 0.0316 nM | 25.1 to 158 nM
10 | Cc1cccc(-c2[nH]cnc2-c2ccc3ncc(-c4ccc(C(=O)O[C@@H]5CCN(C)C5)nc4)cc3c2)n1 [Compound 273, (R)-1-methylpyrrolidin-3-yl 5-(6-(5-(6-methylpyridin-2-yl)-1H-imidazol-4-yl)quinolin-3-yl)picolinate] | < 0.0316 nM | 25.1 to 158 nM
11 | Cc1cccc(-c2n[nH]cc2-c2ccc3ncc(N4CCCN(CC5CCCN5)CC4)cc3n2)n1 (centres unmarked) [Compound 274, 2-[3-(6-methyl-2-pyridyl)-1H-pyrazol-4-yl]-7-[4-(pyrrolidin-2-ylmethyl)-1,4-diazepan-1-yl]-1,5-naphthyridine] | 0.0398 to 0.316 nM | 200 to 1260 nM
12 | Cc1cccc(-c2[nH]cnc2-c2ccc3ncc(-c4ccc5c(c4)CCC5N)cc3c2)n1 (centres unmarked) [Compound 275, 5-[6-[5-(6-methyl-2-pyridyl)-1H-imidazol-4-yl]-3-quinolyl]indan-1-amine] | 0.0398 to 0.316 nM | 25.1 to 158 nM
13 | CNCCn1ccc(-c2cnc3ccc(-c4c[nH]nc4-c4cccc(C(C)C)n4)nc3c2)n1 [Compound 276, 2-[3-[6-[3-(6-isopropyl-2-pyridyl)-1H-pyrazol-4-yl]-1,5-naphthyridin-3-yl]pyrazol-1-yl]-N-methyl-ethanamine] | < 0.0316 nM | 25.1 to 158 nM
14 | Cc1cccc(-c2[nH]ncc2-c2ccc3ncc(C(=O)OCCN4CCNCC4)cc3n2)n1 [Compound 277, 2-piperazin-1-ylethyl 6-[5-(6-methyl-2-pyridyl)-1H-pyrazol-4-yl]-1,5-naphthyridine-3-carboxylate] | 0.0398 to 0.316 nM | 200 to 1260 nM
15 | Cc1cccc(-c2[nH]cnc2-c2ccc3ncc(-c4ccc5c(c4)CCNC5)cc3c2)n1 [Compound 278, 6-[5-(6-methyl-2-pyridyl)-1H-imidazol-4-yl]-3-(1,2,3,4-tetrahydroisoquinolin-6-yl)quinoline] | 0.0398 to 0.316 nM | < 20 nM
16 | Cc1cccc(-c2n[nH]cc2-c2ccc3ncc(N4CC(CN)C4)cc3n2)n1 [Compound 279, [1-[6-[3-(6-methyl-2-pyridyl)-1H-pyrazol-4-yl]-1,5-naphthyridin-3-yl]azetidin-3-yl]methanamine] | 0.0398 to 0.316 nM | 25.1 to 158 nM
17 | Cc1cccc(-c2[nH]cnc2-c2ccc3ncc(N4CCCC5(CNC5)C4)cc3c2)n1 [Compound 280, 3-(2,6-diazaspiro[3.5]nonan-6-yl)-6-[5-(6-methyl-2-pyridyl)-1H-imidazol-4-yl]quinoline] | 0.0398 to 0.316 nM | 200 to 1260 nM
18 | Cc1cccc(-c2n[nH]cc2-c2ccc3ncc(N4CCN(CCN)CC4)cc3n2)n1 [Compound 281, 2-[4-[6-[3-(6-methyl-2-pyridyl)-1H-pyrazol-4-yl]-1,5-naphthyridin-3-yl]piperazin-1-yl]ethanamine] | < 0.0316 nM | 200 to 1260 nM
19 | Cc1cccc(-c2n[nH]cc2-c2ccc3ncc(N4CCC(O)CC4)cc3n2)n1 [Compound 282, 1-[6-[3-(6-methyl-2-pyridyl)-1H-pyrazol-4-yl]-1,5-naphthyridin-3-yl]piperidin-4-ol] | < 0.0316 nM | < 20 nM
20 | Cc1cccc(-c2n[nH]cc2-c2ccc3ncc(N4CC(C)N(CCN)C(C)C4)cc3n2)n1 (centres unmarked) [Compound 283, 2-[2,6-dimethyl-4-[6-[3-(6-methyl-2-pyridyl)-1H-pyrazol-4-yl]-1,5-naphthyridin-3-yl]piperazin-1-yl]ethanamine] | 0.0398 to 0.316 nM | 200 to 1260 nM
21 | Cc1nc(-c2n[nH]cc2-c2ccc3ncc(-c4ncn5c4NCC5)cc3n2)ccc1F [Compound 284, 7-(2,3-dihydro-1H-imidazo[1,5-a]imidazol-7-yl)-2-[3-(5-fluoro-6-methyl-2-pyridyl)-1H-pyrazol-4-yl]-1,5-naphthyridine] | 0.0398 to 0.316 nM | 25.1 to 158 nM
22 | Cc1cccc(-c2n[nH]cc2-c2ccc3ncc(NC(=O)CCN4CCOCC4)cc3n2)n1 [Compound 286, N-[6-[3-(6-methyl-2-pyridyl)-1H-pyrazol-4-yl]-1,5-naphthyridin-3-yl]-3-morpholino-propanamide] | 0.0398 to 0.316 nM | 25.1 to 158 nM
23 | Cc1cccc(-c2nc3ccccn3c2-c2ccc3ncc(N4CCNCC4)cc3c2)n1 [Compound 287, 6-[2-(6-methyl-2-pyridyl)imidazo[1,2-a]pyridin-3-yl]-3-piperazin-1-yl-quinoline] | 0.0398 to 0.316 nM | 25.1 to 158 nM
24 | Cc1cccc(-c2nnn(Cc3ccccc3)c2-c2ccc3ncc(-c4c[nH]nc4C(F)(F)F)cc3n2)n1 [Compound 288, 2-[3-benzyl-5-(6-methyl-2-pyridyl)triazol-4-yl]-7-[3-(trifluoromethyl)-1H-pyrazol-4-yl]-1,5-naphthyridine] | 0.398 to 3.16 nM | 25.1 to 158 nM
25 | Cc1nc(-c2n[nH]cc2-c2ccc3ncc(-c4cc5c(nn4)CCNC5)cc3n2)ccc1F [Compound 289, 3-[6-[3-(5-fluoro-6-methyl-2-pyridyl)-1H-pyrazol-4-yl]-1,5-naphthyridin-3-yl]-5,6,7,8-tetrahydropyrido[4,3-c]pyridazine] | 0.398 to 3.16 nM | 200 to 1260 nM
26 | Cc1nc(-c2nc3ccccn3c2-c2ccc3ncc(NCCN4CCN(C(C)C)CC4)cc3n2)ccc1F [Compound 290, 6-[2-(5-fluoro-6-methyl-2-pyridyl)imidazo[1,2-a]pyridin-3-yl]-N-[2-(4-isopropylpiperazin-1-yl)ethyl]-1,5-naphthyridin-3-amine] | 0.0398 to 0.316 nM | 25.1 to 158 nM
27 | Cc1cccc(-c2n[nH]cc2-c2ccc3nc(C4CCCN4)c(-c4cn[nH]c4)cc3c2)n1 (centres unmarked) [Compound 291, 6-[3-(6-methyl-2-pyridyl)-1H-pyrazol-4-yl]-3-(1H-pyrazol-4-yl)-2-pyrrolidin-2-yl-quinoline] | 3.98 to 31.6 nM | 1580 to 10000 nM
28 | Cc1cccc(-c2n[nH]cc2-c2ccc3ncc(N4CCN(CCN(C)C)CC4)cc3n2)n1 [Compound 292, N,N-dimethyl-2-[4-[6-[3-(6-methyl-2-pyridyl)-1H-pyrazol-4-yl]-1,5-naphthyridin-3-yl]piperazin-1-yl]ethanamine] | < 0.0316 nM | 25.1 to 158 nM

Reference: patent US11590116B2 (THERAVANCE BIOPHARMA R&D IP, LLC, priority 2019, dated 2023)
